# Experimental data reported in PubChem BioAssay AID2060606 (Molecular Pharmacology Branch, DTP, NCI, 2025).
# Test system: 922993-354-T-J3-PDC complex spheroids, viability, % test/control
# Test: Anticancer human tumor 922993-354-T-J3-PDC patient-derived endometrial carcinoma cell line growth inhibition [CLK]
# Conditions: for IC50: curve of first compound; for viability, T/C: stronger effect = lower value
# Summary of the method: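 Multi-cell-type spheroids combined patient-derived tumor cells with HUVEC endothelial cells and human mesenchymal stem cells. Paired agents were dosed in half-log steps down from about clinical Cmax, or from 10 microM where Cmax was unknown.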
# [1] = second compound 0.0316 µM, first compound 0.00949 µM
# [2] = second compound 0.0316 µM, first compound 0.03 µM
# [3] = second compound 0.0316 µM, first compound 0.0949 µM
# [4] = second compound 0.0316 µM, first compound 0.3 µM
# [5] = second compound 0.1 µM, first compound 0.00949 µM
# [6] = second compound 0.1 µM, first compound 0.03 µM
# [7] = second compound 0.1 µM, first compound 0.0949 µM
# [8] = second compound 0.1 µM, first compound 0.3 µM
# [9] = second compound 0.316 µM, first compound 0.00949 µM
# [10] = second compound 0.316 µM, first compound 0.03 µM
# [11] = second compound 0.316 µM, first compound 0.0949 µM
# [12] = second compound 0.316 µM, first compound 0.3 µM
# [13] = second compound 1 µM, first compound 0.00949 µM
# [14] = second compound 1 µM, first compound 0.03 µM
# [15] = second compound 1 µM, first compound 0.0949 µM
# [16] = second compound 1 µM, first compound 0.3 µM
# [17] = second compound 3.16 µM, first compound 0.00949 µM
# [18] = second compound 3.16 µM, first compound 0.03 µM
# [19] = second compound 3.16 µM, first compound 0.0949 µM
# [20] = second compound 3.16 µM, first compound 0.3 µM
# [21] = second compound 10 µM, first compound 0.00949 µM
# [22] = second compound 10 µM, first compound 0.03 µM
# [23] = second compound 10 µM, first compound 0.0949 µM
# [24] = second compound 10 µM, first compound 0.3 µM
# 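Further: spheroids exposed to the agents for 7 days before readout.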
compound,measurement,setting,value
C=CC(=O)Nc1cc(Nc2nccc(-c3cn(C)c4ccccc34)n2)c(OC)cc1N(C)CCN(C)C + CNC(=O)c1ccc(Nc2nc(OC3CCCC3)c3c(-c4ccc5nc(C)oc5c4)c[nH]c3n2)c(OC)c1,IC50,second compound 0.0316 µM,> 300 nM
same,IC50,second compound 0.1 µM,> 300 nM
same,IC50,second compound 0.316 µM,> 300 nM
same,IC50,second compound 1 µM,< 0.949 nM
same,IC50,second compound 3.16 µM,< 0.949 nM
same,IC50,second compound 10 µM,< 0.949 nM
same,"viability, T/C","second compound 0.0316 µM, first compound 0.000949 µM",106%
same,"viability, T/C","second compound 0.0316 µM, first compound 0.003 µM",105%
same,"viability, T/C",[1],106%
same,"viability, T/C",[2],102%
same,"viability, T/C",[3],96.9%
same,"viability, T/C",[4],89.2%
same,"viability, T/C","second compound 0.1 µM, first compound 0.000949 µM",97.5%
same,"viability, T/C","second compound 0.1 µM, first compound 0.003 µM",107%
same,"viability, T/C",[5],96.4%
same,"viability, T/C",[6],98.3%
same,"viability, T/C",[7],91.2%
same,"viability, T/C",[8],86%
same,"viability, T/C","second compound 0.316 µM, first compound 0.000949 µM",70.7%
same,"viability, T/C","second compound 0.316 µM, first compound 0.003 µM",58.9%
same,"viability, T/C",[9],55.5%
same,"viability, T/C",[10],42%
same,"viability, T/C",[11],57.1%
same,"viability, T/C",[12],51.2%
same,"viability, T/C","second compound 1 µM, first compound 0.000949 µM",37.5%
same,"viability, T/C","second compound 1 µM, first compound 0.003 µM",34.9%
same,"viability, T/C",[13],41.9%
same,"viability, T/C",[14],42%
same,"viability, T/C",[15],34.6%
same,"viability, T/C",[16],35.5%
same,"viability, T/C","second compound 3.16 µM, first compound 0.000949 µM",35.8%
same,"viability, T/C","second compound 3.16 µM, first compound 0.003 µM",33%
same,"viability, T/C",[17],34%
same,"viability, T/C",[18],34.6%
same,"viability, T/C",[19],34%
same,"viability, T/C",[20],29.9%
same,"viability, T/C","second compound 10 µM, first compound 0.000949 µM",26.8%
same,"viability, T/C","second compound 10 µM, first compound 0.003 µM",29.7%
same,"viability, T/C",[21],30%
same,"viability, T/C",[22],30.2%
same,"viability, T/C",[23],29%
same,"viability, T/C",[24],32.5%
NC(=O)C(=Cn1cnc(-c2cc(C(F)(F)F)cc(C(F)(F)F)c2)n1)c1cncnc1 + CNC(=O)c1ccc(Nc2nc(OC3CCCC3)c3c(-c4ccc5nc(C)oc5c4)c[nH]c3n2)c(OC)c1,IC50,second compound 0.0316 µM,583 nM
same,IC50,second compound 0.1 µM,467 nM
same,IC50,second compound 0.316 µM,205 nM
same,IC50,second compound 1 µM,48.6 nM
same,IC50,second compound 3.16 µM,44.6 nM
same,IC50,second compound 10 µM,36.4 nM
same,"viability, T/C",[1],120%
same,"viability, T/C",[2],123%
same,"viability, T/C",[3],98.3%
same,"viability, T/C",[4],57.7%
same,"viability, T/C","second compound 0.0316 µM, first compound 0.949 µM",50.4%
same,"viability, T/C","second compound 0.0316 µM, first compound 3 µM",34.6%
same,"viability, T/C",[5],107%
same,"viability, T/C",[6],120%
same,"viability, T/C",[7],102%
same,"viability, T/C",[8],54%
same,"viability, T/C","second compound 0.1 µM, first compound 0.949 µM",49.4%
same,"viability, T/C","second compound 0.1 µM, first compound 3 µM",36.7%
same,"viability, T/C",[9],81.1%
same,"viability, T/C",[10],99%
same,"viability, T/C",[11],71%
same,"viability, T/C",[12],37.3%
same,"viability, T/C","second compound 0.316 µM, first compound 0.949 µM",41.7%
same,"viability, T/C","second compound 0.316 µM, first compound 3 µM",40.2%
same,"viability, T/C",[13],56.8%
same,"viability, T/C",[14],63.2%
same,"viability, T/C",[15],36.2%
same,"viability, T/C",[16],18%
same,"viability, T/C","second compound 1 µM, first compound 0.949 µM",29%
same,"viability, T/C","second compound 1 µM, first compound 3 µM",22.2%
same,"viability, T/C",[17],58.8%
same,"viability, T/C",[18],67.8%
same,"viability, T/C",[19],24.5%
same,"viability, T/C",[20],12.4%
same,"viability, T/C","second compound 3.16 µM, first compound 0.949 µM",18.9%
same,"viability, T/C","second compound 3.16 µM, first compound 3 µM",6.38%
same,"viability, T/C",[21],46.6%
same,"viability, T/C",[22],65.3%
same,"viability, T/C",[23],20.4%
same,"viability, T/C",[24],8.4%
same,"viability, T/C","second compound 10 µM, first compound 0.949 µM",11.9%
same,"viability, T/C","second compound 10 µM, first compound 3 µM",3.1%
Nc1ccccc1NC(=O)c1ccc(CNC(=O)OCc2cccnc2)cc1 + CNC(=O)c1ccc(Nc2nc(OC3CCCC3)c3c(-c4ccc5nc(C)oc5c4)c[nH]c3n2)c(OC)c1,IC50,second compound 0.0316 µM,> 10000 nM
same,IC50,second compound 0.1 µM,6250 nM
same,IC50,second compound 0.316 µM,2290 nM
same,IC50,second compound 1 µM,< 31.6 nM
same,IC50,second compound 3.16 µM,< 31.6 nM
same,IC50,second compound 10 µM,< 31.6 nM
same,"viability, T/C","second compound 0.0316 µM, first compound 0.0316 µM",106%
same,"viability, T/C","second compound 0.0316 µM, first compound 0.1 µM",99.7%
same,"viability, T/C","second compound 0.0316 µM, first compound 0.316 µM",93.3%
same,"viability, T/C","second compound 0.0316 µM, first compound 1 µM",86.6%
same,"viability, T/C","second compound 0.0316 µM, first compound 3.16 µM",65.1%
same,"viability, T/C","second compound 0.0316 µM, first compound 10 µM",52.1%
same,"viability, T/C","second compound 0.1 µM, first compound 0.0316 µM",106%
same,"viability, T/C","second compound 0.1 µM, first compound 0.1 µM",93.8%
same,"viability, T/C","second compound 0.1 µM, first compound 0.316 µM",97.7%
same,"viability, T/C","second compound 0.1 µM, first compound 1 µM",77.4%
same,"viability, T/C","second compound 0.1 µM, first compound 3.16 µM",58.4%
same,"viability, T/C","second compound 0.1 µM, first compound 10 µM",44.4%
same,"viability, T/C","second compound 0.316 µM, first compound 0.0316 µM",59.1%
same,"viability, T/C","second compound 0.316 µM, first compound 0.1 µM",50%
same,"viability, T/C","second compound 0.316 µM, first compound 0.316 µM",57.9%
same,"viability, T/C","second compound 0.316 µM, first compound 1 µM",51.9%
same,"viability, T/C","second compound 0.316 µM, first compound 3.16 µM",49.3%
same,"viability, T/C","second compound 0.316 µM, first compound 10 µM",34.4%
same,"viability, T/C","second compound 1 µM, first compound 0.0316 µM",37.6%
same,"viability, T/C","second compound 1 µM, first compound 0.1 µM",37%
same,"viability, T/C","second compound 1 µM, first compound 0.316 µM",31.9%
same,"viability, T/C","second compound 1 µM, first compound 1 µM",34.4%
same,"viability, T/C","second compound 1 µM, first compound 3.16 µM",31.9%
same,"viability, T/C","second compound 1 µM, first compound 10 µM",8.75%
same,"viability, T/C","second compound 3.16 µM, first compound 0.0316 µM",29%
same,"viability, T/C","second compound 3.16 µM, first compound 0.1 µM",30.7%
same,"viability, T/C","second compound 3.16 µM, first compound 0.316 µM",27.9%
same,"viability, T/C","second compound 3.16 µM, first compound 1 µM",31.5%
same,"viability, T/C","second compound 3.16 µM, first compound 3.16 µM",24.8%
same,"viability, T/C","second compound 3.16 µM, first compound 10 µM",6.59%
same,"viability, T/C","second compound 10 µM, first compound 0.0316 µM",28.8%
same,"viability, T/C","second compound 10 µM, first compound 0.1 µM",24.2%
same,"viability, T/C","second compound 10 µM, first compound 0.316 µM",24.8%
same,"viability, T/C","second compound 10 µM, first compound 1 µM",30.1%
same,"viability, T/C","second compound 10 µM, first compound 3.16 µM",17.2%
same,"viability, T/C","second compound 10 µM, first compound 10 µM",5.11%
